Measurements published in the NIST ThermoML archive (doi:10.1021/je900691n).
Numbers after ± are expanded uncertainties.

Assay: xn = mol fraction of the nth substance listed
Conditions: Liquid, Pycnometric method

COC(=O)OC [dimethyl carbonate] + O=C=O
mass density [kg/m3]
Conditions	323.15 K	327.95 K
8540 kPa, x1 = 0.1484	–	839 ± 4
8840 kPa, x1 = 0.1484	–	844 ± 4
8920 kPa, x1 = 0.118	–	801 ± 4
9150 kPa, x1 = 0.0242	–	333 ± 4
9160 kPa, x1 = 0.118	–	806 ± 4
9180 kPa, x1 = 0.0242	–	337 ± 4
9250 kPa, x1 = 0.0242	–	344 ± 4
9290 kPa, x1 = 0.1484	–	850 ± 4
9320 kPa, x1 = 0.0242	–	352 ± 4
9320 kPa, x1 = 0.086	–	724 ± 4
9400 kPa, x1 = 0.0242	–	359 ± 4
9470 kPa, x1 = 0.0242	–	369 ± 4
9470 kPa, x1 = 0.118	–	812 ± 4
9540 kPa, x1 = 0.0242	–	378 ± 4
9620 kPa, x1 = 0.0242	495 ± 4	387 ± 4
9690 kPa, x1 = 0.0242	–	397 ± 4
9710 kPa, x1 = 0.0242	509 ± 4	–
9720 kPa, x1 = 0.086	–	740 ± 4
9740 kPa, x1 = 0.118	852 ± 4	–
9750 kPa, x1 = 0.0481	666 ± 4	–
9760 kPa, x1 = 0.086	792 ± 4	–
9760 kPa, x1 = 0.1484	883 ± 4	–
9800 kPa, x1 = 0.0242	523 ± 4	–
9900 kPa, x1 = 0.0242	536 ± 4	–
9930 kPa, x1 = 0.0242	541 ± 4	–
10010 kPa, x1 = 0.0481	683 ± 4	–
10220 kPa, x1 = 0.118	859 ± 4	–
10280 kPa, x1 = 0.086	803 ± 4	–
10280 kPa, x1 = 0.1484	888 ± 4	–
10350 kPa, x1 = 0.0481	700 ± 4	–
10740 kPa, x1 = 0.086	813 ± 4	–
10740 kPa, x1 = 0.118	866 ± 4	–
10740 kPa, x1 = 0.1484	893 ± 4	–
10780 kPa, x1 = 0.0481	719 ± 4	–
11230 kPa, x1 = 0.086	822 ± 4	–
11230 kPa, x1 = 0.118	872 ± 4	–
11230 kPa, x1 = 0.1484	897 ± 4	–
11360 kPa, x1 = 0.0481	739 ± 4	–
11670 kPa, x1 = 0.086	829 ± 4	–
11750 kPa, x1 = 0.118	878 ± 4	–
11760 kPa, x1 = 0.1484	901 ± 4	–
11870 kPa, x1 = 0.0481	754 ± 4	–
12240 kPa, x1 = 0.1484	905 ± 4	–
12270 kPa, x1 = 0.118	883 ± 4	–
12310 kPa, x1 = 0.086	839 ± 4	–
12390 kPa, x1 = 0.0481	768 ± 4	–
12740 kPa, x1 = 0.086	844 ± 4	–
12750 kPa, x1 = 0.118	888 ± 4	–
12770 kPa, x1 = 0.1484	910 ± 4	–
12920 kPa, x1 = 0.0481	780 ± 4	–
13190 kPa, x1 = 0.086	851 ± 4	–
13260 kPa, x1 = 0.1484	913 ± 4	–
13310 kPa, x1 = 0.118	894 ± 4	–
13550 kPa, x1 = 0.0481	792 ± 4	–
13740 kPa, x1 = 0.086	857 ± 4	–
13760 kPa, x1 = 0.1484	918 ± 4	–
13830 kPa, x1 = 0.118	898 ± 4	–
14230 kPa, x1 = 0.086	863 ± 4	–
14270 kPa, x1 = 0.118	902 ± 4	–
14330 kPa, x1 = 0.1484	922 ± 4	–
14730 kPa, x1 = 0.086	868 ± 4	–
14750 kPa, x1 = 0.118	907 ± 4	–
14820 kPa, x1 = 0.1484	925 ± 4	–
15220 kPa, x1 = 0.086	873 ± 4	–
15250 kPa, x1 = 0.118	911 ± 4	–
15510 kPa, x1 = 0.1484	930 ± 4	–
15660 kPa, x1 = 0.086	878 ± 4	–
15740 kPa, x1 = 0.118	914 ± 4	–
16130 kPa, x1 = 0.086	883 ± 4	–
16420 kPa, x1 = 0.1484	936 ± 4	–
16430 kPa, x1 = 0.118	920 ± 4	–
